Measured values as given in patent US20110196035A1, “Temporally-Controlled Treatment of Joint Disease” (priority 2010, published 2011).
Where two headings read alike, the source gives them in different places.

Test system: HIG-82 synovial cells
Description: After having made these measurements at various times following insertion of the test composition into the simulated joint, the effect on MMP production by synovial cells for relevant blocker concentrations and times of exposure was measured employing a confluent layer of HIG-82 synovial cells in serumless Neuman-Tytell growth medium, which is a model system commonly used by those skilled in the art to represent human synovial tissue for the purpose of studying the proinflammatory effects of IL-1 and the antagonization thereon produced by agents of interest, for example, calcium-channel blockers.
The MMP levels in the medium conditioned by the cells were measured using the assay described in Kolomytkin, O. V., Marino, A. A., Waddell, D. D., Mathis, J. M., Wolf, R. E., Sadasivan, K. K. and Albright, J. A. IL-1β-induced Production of Metalloproteinases by Synovial Cells Depends on Gap-junction Conductance.

With `COc1ccc(CCN(C)CCCC(C#N)(c2ccc(OC)c(OC)c2)C(C)C)cc1OC` (racemic) [racemic verapamil, verapamil] the “reduction of MMP activity” value (0.009 mg/mL for 300 hours) was “about 21%”, the “reduction of MMP production/activity” value (0.05 mg/mL for 32 hours) was 59% and the “reduction of MMP production/activity” value (0.05 mg/mL for 34 hours) was 61%. The “reduction in MMP activity” value (0.05 mg/mL for 62 hours) was 87%, the inhibition at 50 µg/mL (Synovial cell, 45 h, read-out: maximum MMP inhibition) was ~81% and the inhibition at 31 µg/mL (Synovial cell, 300 h, read-out: MMP inhibition) was ~61%. For the same molecule, the inhibition at 19 µg/mL (Synovial cell, 300 h, read-out: maximum MMP inhibition) was 37%, the inhibition at 50 µg/mL (Synovial cell, read-out: MMP inhibition) was 81% and the “reduction of MMP production” value (conditions of 2 mg in saline composition: average 0.006 mg/mL, about 35 hours) was 13%. For the same molecule, the “verapamil concentration at which MMP inhibition reaches its maximum value” (exposure about 45 hours, further increases give no enhanced inhibition) was “about 0.05 mg/mL”, the “maximum MMP inhibition” value (exposure time 10 hours (FIG. 3A)) was 22% and the “maximum MMP inhibition” value (exposure time 100 hours (FIG. 3A)) was 91%.
